Experimental data as given in US20230381142A1, “ANTILEISHMANIAL COMPOUNDS, COMPOSITIONS AND USE THEREOF” (TRUSTEES OF BOSTON UNIVERSITY, priority 2022, published 2023).
Where two headings read alike, the source gives them in different places.

Tests used:
[1] = test system: L. donovani intracellular amastigotes infecting THP-1 macrophages; test: GSK intramacrophage L. donovani assay (LD AMMAC, inMac; Assay Conditions C); assay type: cell-based; details: Leishmania donovani
Protocol: Assay Conditions C: The intramacrophage Leishmania donovani activity assay was performed as described in Antimicrob Agents Chemother (2013) 57(7):2913-22.
(§1) The intramacrophage Leishmania donovani activity assay (LD AMMAC) at GlaxoSmithKline was performed as described.
(§2) Given the literature precedents described above and the apparent narrow tolerance for R^3 substitutions observed in the primary screen compounds, a thorough and methodical assessment was undertaken of tolerated groups at the three points of diversity (R^1/R^2/R^3) for the core. At this stage of the project, all analogues were assessed using a battery of assays performed in-house at GlaxoSmithKline. For antileishmanial activity, GSK's inMac assay was utilized. This assay provides two readouts of compound potency: average number of intracellular amastigotes per infected cell (AMMAC) EC50, percentage of infected cells per well (INFCELL) EC50, as well as a toxicity output derived from the number of host cells (MAC EC50). In addition, compounds were assessed for toxicity against HepG2 cells (HEPG2 EC50). Here, AMMAC EC50 values were focused on for relative potency assessments. […] It should be noted that for all compounds assessed in this project, the measured toxicity against THP-1 macrophages either equaled or exceeded that of HepG2 hepatocytes, therefore the MAC SI is used here as the more conservative estimate of therapeutic index.

[2] = GSK inMac assay, host cell toxicity readout (LD MAC); assay type: cell-based, human; details: human
Protocol: as §1, §2

[3] = THP-1 cells, values marked c, read-out: L. donovani amastigotes EC50 (THP-1 cells)
[4] = footnote c, read-out: THP-1 Host Cell CC50
[5] = values marked c: THP-1 cells, read-out: L. donovani amastigotes EC50 (μM, THP-1 or B10R cells)

Compound `CC(C)Cc1n[nH]c2c1C(c1ccc(F)cc1)N(c1ccc(C(=O)O)cc1)C2=O` (centres unmarked) [CMLD011031] has an EC50 [1, 3] of over 50 µM and a CC50 [2, 4] of over 50 µM.
Compound `COc1ccc(N2C(=O)c3[nH]nc(CC(C)C)c3C2c2ccc(C(=O)O)cc2)cc1` (centres unmarked) [CMLD011032] has an EC50 [1, 3] of over 50 µM and a CC50 [2, 4] of over 50 µM.
Compound `COC(=O)c1ccc(N2C(=O)c3[nH]nc(CC(C)C)c3C2c2ccc(F)cc2)cc1` (centres unmarked) [CMLD011033] has an EC50 [1, 3] of 1.6 µM and a CC50 [2, 4] of 31.6 µM.
With `COC(=O)c1ccc(C2c3c(CC(C)C)n[nH]c3C(=O)N2c2ccc(OC)cc2)cc1` (centres unmarked) [CMLD011034] the EC50 [1, 3] was 25.1 µM and the CC50 [2, 4] was 39.8 µM.
`CCC(C)(COC(C)=O)CN1C(=O)c2[nH]nc(CC(C)C)c2C1c1ccc(F)cc1` (centres unmarked) [CMLD011035] showed an EC50 [1, 3] of 5 µM and a CC50 [2, 4] of 25.1 µM.
With `CO[C@H]1CC[C@H](N2C(=O)c3[nH]nc(CC(C)C)c3C2c2ccc(F)cc2)CC1` (some centres unmarked) [CMLD011036] the EC50 [1, 3] was 25.1 µM and the CC50 [2, 4] was over 50 µM.
`CC(=O)OCC(CO)N1C(=O)c2[nH]nc(CC(C)C)c2C1c1ccc(F)cc1` (centres unmarked) [CMLD011037] showed an EC50 [1, 5] of at least 50.1 µM and a CC50 ([2]; host THP-1 cells) of at least 50.1 µM.
Compound `CC(C)Cc1n[nH]c2c1C(c1ccc(F)cc1)N(CC(C)(CO)CO)C2=O` (centres unmarked) [CMLD011038] has an EC50 [1, 5] of at least 50.1 µM and a CC50 ([2]; host THP-1 cells) of at least 50.1 µM.
Work on `COc1ccc(OC)c(N2C(=O)c3[nH]nc(CC(C)C)c3C2c2ccc(F)cc2)c1` (centres unmarked) [CMLD011040] yielded an EC50 [1, 3] of 25.1 µM and a CC50 [2, 4] of at least 50.1 µM.
In the case of `CC(C)Cc1n[nH]c2c1C(C1CCCCC1)N(c1ccc(C(C)(C)C)cc1)C2=O` (centres unmarked) [CMLD011042], the EC50 [1, 3] is reported as 2.5 µM and the CC50 [2, 4] is reported as at least 50.1 µM.
Compound `CC(C)Cc1n[nH]c2c1C(C1CCCCC1)N(c1ccc3c(c1)OCO3)C2=O` (centres unmarked) [CMLD011043] has an EC50 [1, 3] of 5 µM and a CC50 [2, 4] of 15.8 µM.
In the case of `COc1cccc(N2C(=O)c3[nH]nc(CC(C)C)c3C2C2CCCCC2)c1` (centres unmarked) [CMLD011044], the EC50 [1, 5] is reported as 6.3 µM and the CC50 ([2]; host THP-1 cells) is reported as at least 50.1 µM.
For `COc1ccccc1N1C(=O)c2[nH]nc(CC(C)C)c2C1C1CCCCC1` (centres unmarked) [CMLD011045], the EC50 [1, 5] was 10 µM and the CC50 ([2]; host THP-1 cells) was 25.1 µM.
In the case of `COc1ccccc1N1C(=O)c2[nH]nc(CC(C)C)c2C1c1ccc(F)cc1` (centres unmarked) [CMLD011046], the EC50 [1, 3] is reported as 20 µM and the CC50 [2, 4] is reported as over 50 µM.
With `CC(C)Cc1n[nH]c2c1C(c1ccccc1Cl)N(c1ccc(C(C)(C)C)cc1)C2=O` (centres unmarked) [CMLD011047] the EC50 [1, 5] was 3.2 µM and the CC50 ([2]; host THP-1 cells) was 7.9 µM.
For `COc1cc(N2C(=O)c3[nH]nc(CC(C)C)c3C2c2ccc(F)cc2)ccc1F` (centres unmarked) [CMLD011073], the EC50 [1, 5] was 20 µM and the CC50 ([2]; host THP-1 cells) was 15.8 µM.
`COc1ccc(N2C(=O)c3[nH]nc(CC(C)C)c3C2c2nccs2)cc1` (centres unmarked) [CMLD011075] gave an EC50 [1, 3] of 20 µM and a CC50 [2, 4] of over 50 µM.
`COc1ccc(N2C(=O)c3[nH]nc(CC(C)C)c3[C@H]2c2cccc(C(F)(F)F)c2)cn1` [CMLD011076] showed an EC50 [1, 5] of 10 µM and a CC50 ([2]; host THP-1 cells) of 15.8 µM.
`COc1cc(N2C(=O)c3[nH]nc(CC(C)C)c3C2c2ccccc2Br)cc(OC)c1OC` (centres unmarked) [CMLD011077] gave an EC50 [1, 5] of 6.3 µM and a CC50 ([2]; host THP-1 cells) of 6.3 µM.
Work on `CC(C)Cc1n[nH]c2c1C(c1ccccc1Cl)N(c1ccc(F)cc1)C2=O` (centres unmarked) [CMLD011078] yielded an EC50 [1, 5] of 4 µM and a CC50 ([2]; host THP-1 cells) of 20 µM.
For `COc1ccc(N2C(=O)c3[nH]nc(CC(C)C)c3C2c2ccc(F)cc2F)cc1` (centres unmarked) [CMLD011079], the EC50 [1, 3] was 2 µM and the CC50 [2, 4] was 25.1 µM.
In the case of `COC(=O)c1ccc(N2C(=O)c3[nH]nc(CC(C)C)c3C2c2cccc(C(F)(F)F)c2)cc1` (centres unmarked) [CMLD011080], the EC50 [1, 5] is reported as 10 µM and the CC50 ([2]; host THP-1 cells) is reported as 39.8 µM.
`CC(C)Cc1n[nH]c2c1C(c1cccc(C(F)(F)F)c1)N(c1ccc(Br)cc1)C2=O` (centres unmarked) [CMLD011081] gave an EC50 [1, 3] of 31.6 µM and a CC50 [2, 4] of 31.6 µM.
With `CC(C)Cc1n[nH]c2c1C(C1CCCCC1)N(c1ccc(Br)cc1)C2=O` (centres unmarked) [CMLD011087] the EC50 [1, 5] was 6.3 µM and the CC50 ([2]; host THP-1 cells) was 7.9 µM.
For `COc1ccc(N2C(=O)c3[nH]nc(CC(C)C)c3C2c2cccc(OC)c2)cc1` (centres unmarked) [CMLD011088], the EC50 [1, 3] was 4 µM and the CC50 [2, 4] was 20 µM.
Work on `COc1ccc(N2C(=O)c3[nH]nc(CC(C)C)c3C2C2CCCCC2)cc1F` (centres unmarked) [CMLD011090] yielded an EC50 [1, 5] of 5 µM and a CC50 ([2]; host THP-1 cells) of at least 50.1 µM.
With `Cc1ccc(CN2C(=O)c3[nH]nc(CC(C)C)c3C2c2ccc(F)cc2)o1` (centres unmarked) [CMLD011092] the EC50 [1, 3] was 15.9 µM and the CC50 [2, 4] was 39.8 µM.
For `COc1ccc(N2C(=O)c3[nH]nc(-c4ccc(Cl)cc4Cl)c3C2c2ccc(F)cc2)cc1` (centres unmarked) [CMLD011093], the EC50 [1, 3] was 20 µM and the CC50 [2, 4] was over 50 µM.
`COC(=O)c1ccc(N2C(=O)c3[nH]nc(CC(C)C)c3C2C2CCCCC2)cc1` (centres unmarked) [CMLD011094] showed an EC50 [1, 3] of 39.8 µM and a CC50 [2, 4] of over 50 µM.
Compound `CC(C)Cc1n[nH]c2c1C(c1ccc(F)cc1)N(c1ccccn1)C2=O` (centres unmarked) [CMLD011095] has an EC50 [1, 3] of 20 µM and a CC50 [2, 4] of over 50 µM.
With `COc1ccc(N2C(=O)c3[nH]nc(CC(C)C)c3C2c2ccc(Cl)cc2)cc1` (centres unmarked) [CMLD011096] the EC50 [1, 3] was 4 µM and the CC50 [2, 4] was 15.9 µM.
